In US20150274719A1, “AMINO-SUBSTITUTED IMIDAZO[1,2-A]PYRIDINECARBOXAMIDES AND THEIR USE” (BAYER PHARMA AKTIENGESELLSCHAFT, priority 2012, published 2015):

Target: T1, recombinant guanylate cyclase reporter cell line (Rattus norvegicus, UniProt P19686+P20595)
T1 construct: expressed in transfected cells; host or cells: recombinant reporter cell line
T1 sequence (P19686 1-690): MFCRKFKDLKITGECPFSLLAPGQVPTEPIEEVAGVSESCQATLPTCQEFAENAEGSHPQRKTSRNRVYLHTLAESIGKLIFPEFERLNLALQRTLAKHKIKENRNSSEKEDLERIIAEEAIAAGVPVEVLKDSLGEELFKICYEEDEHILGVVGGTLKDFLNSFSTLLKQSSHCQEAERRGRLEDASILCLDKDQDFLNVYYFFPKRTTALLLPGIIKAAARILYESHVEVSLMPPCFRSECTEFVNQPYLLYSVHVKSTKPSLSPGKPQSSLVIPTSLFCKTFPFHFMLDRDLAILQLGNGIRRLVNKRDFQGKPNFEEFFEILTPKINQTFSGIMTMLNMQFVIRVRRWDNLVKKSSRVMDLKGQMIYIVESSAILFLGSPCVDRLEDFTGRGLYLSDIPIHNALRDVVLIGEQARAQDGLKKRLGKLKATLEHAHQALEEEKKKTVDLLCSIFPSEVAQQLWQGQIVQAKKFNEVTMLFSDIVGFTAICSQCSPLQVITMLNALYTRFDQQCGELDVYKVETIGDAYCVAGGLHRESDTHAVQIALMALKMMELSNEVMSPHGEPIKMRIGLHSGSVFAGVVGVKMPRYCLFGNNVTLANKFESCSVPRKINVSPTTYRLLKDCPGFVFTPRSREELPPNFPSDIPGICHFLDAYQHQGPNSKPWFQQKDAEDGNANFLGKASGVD
T1 sequence (P20595 1-619): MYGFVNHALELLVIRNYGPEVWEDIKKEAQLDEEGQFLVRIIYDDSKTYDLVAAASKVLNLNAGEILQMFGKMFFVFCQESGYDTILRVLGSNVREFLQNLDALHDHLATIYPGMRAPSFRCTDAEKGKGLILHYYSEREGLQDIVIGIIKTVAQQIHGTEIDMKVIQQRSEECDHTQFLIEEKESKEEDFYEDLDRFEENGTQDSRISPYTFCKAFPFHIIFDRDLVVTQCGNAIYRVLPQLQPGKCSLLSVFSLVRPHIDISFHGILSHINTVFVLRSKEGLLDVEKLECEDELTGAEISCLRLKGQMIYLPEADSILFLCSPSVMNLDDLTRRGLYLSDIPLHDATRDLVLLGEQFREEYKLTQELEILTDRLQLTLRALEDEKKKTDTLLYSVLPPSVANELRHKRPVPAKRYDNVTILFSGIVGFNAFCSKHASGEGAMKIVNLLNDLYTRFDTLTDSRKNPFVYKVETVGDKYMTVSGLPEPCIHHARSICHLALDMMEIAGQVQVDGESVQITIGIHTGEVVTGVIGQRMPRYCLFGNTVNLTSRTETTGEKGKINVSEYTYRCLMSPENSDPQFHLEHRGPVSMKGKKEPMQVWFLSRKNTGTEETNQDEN
Test: Action on recombinant guanylate cyclase reporter cell line
Format: cell-based
Details: in some cases mean values from individual determinations
In short: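 Cellular activity was measured in a reporter cell line expressing recombinant guanylate cyclase. Values are given as MEC, the minimal effective concentration, and some are means of individual determinations.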

In order of falling “MEC (minimal effective concentration)” value:
1. CCCC(C)(N)CNC(=O)c1c(C)nc2c(OCc3ccccc3)cc(C)cn12 (racemic) [Example 340, rac-N-(2-amino-2-methylpentyl)-8-(benzyloxy)-2,6-dimethylimidazo[1,2-a]pyridine-3-carboxamide]  1.00 µM
2. Cc1cc(OCc2c(F)cccc2F)c2nc(C)c(C(=O)NC3CCC4NCCC43)n2c1 (racemic) [Example 342, rac-8-[(2,6-Difluorobenzyl)oxy]-2,6-dimethyl-N-(octahydrocyclopenta[b]pyrrol-4-yl)imidazo[1,2-a]pyridine-3-carboxamide]  1.00 µM
3. CCCC(C)(N)CNC(=O)c1c(C)nc2c(OCc3ccccc3Cl)cc(C)cn12 (racemic) [Example 343, rac-N-(2-amino-2-methylpentyl)-8-[(2-chlorobenzyl)oxy]-2,6-dimethylimidazo[1,2-a]pyridine-3-carboxamide]  1.00 µM
4. Cc1cc(OCc2c(F)cccc2F)c2nc(C)c(C(=O)NCC3CN(Cc4ccccc4)CCO3)n2c1 (racemic) [Example 344, rac-N-[(4-benzylmorpholin-2-yl)methyl]-8-[(2,6-difluorobenzyl)oxy]-2,6-dimethylimidazo[1,2-a]pyridine-3-carboxamide]  1.00 µM
5. CCCC(C)(N)CNC(=O)c1c(C)nc2c(OCc3cccc(C)c3F)cc(C)cn12 (racemic) [Example 317, rac-N-(2-amino-2-methylpentyl)-8-[(2-fluoro-3-methylbenzyl)oxy]-2,6-dimethylimidazo[1,2-a]pyridine-3-carboxamide]  0.30 µM
6. Cc1cc(OCc2c(F)cccc2F)c2nc(C)c(C(=O)NC3(C)CC3(C)N)n2c1 (racemic) [Example 320, rac-N-(2-amino-1,2-dimethylcyclopropyl)-8-[(2,6-difluorobenzyl)oxy]-2,6-dimethylimidazo[1,2-a]pyridine-3-carboxamide (racemate)]  0.30 µM
7. Cc1cc(OCc2c(F)cccc2F)c2nc(C)c(C(=O)NCC(C)(N)Cc3ncn(-c4cc(C)on4)n3)n2c1 (racemic) [Example 321, rac-N-{2-amino-2-methyl-3-[1-(5-methyl-1,2-oxazol-3-yl)-1H-1,2,4-triazol-3-yl]propyl}-8-[(2,6-difluorobenzyl)oxy]-2,6-dimethylimidazo[1,2-a]pyridine-3-carboxamide]  0.30 µM
8. Cc1cc(OCc2c(F)cccc2F)c2nc(C)c(C(=O)NC3CC3N)n2c1 (racemic) [Example 330, rac-N-(2-aminocyclopropyl)-8-[(2,6-difluorobenzyl)oxy]-2,6-dimethylimidazo[1,2-a]pyridine-3-carboxamide]  0.30 µM
9. Cc1cc(OCc2c(F)cccc2F)c2nc(C)c(C(=O)NC3CCC3(C)N)n2c1 (racemic) [Example 331, rac-N-(2-amino-2-methylcyclobutyl)-8-[(2,6-difluorobenzyl)oxy]-2,6-dimethylimidazo[1,2-a]pyridine-3-carboxamide]  0.30 µM
10. Cc1cc(OCc2c(F)cccc2F)c2nc(C)c(C(=O)NC3(C)CCC3(C)N)n2c1 (racemic) [Example 335, rac-N-[2-amino-1,2-dimethylcyclobutyl]-8-[(2,6-difluorobenzyl)oxy]-2,6-dimethylimidazo[1,2-a]pyridine-3-carboxamide]  0.30 µM
11. Cc1cc(OCc2c(F)cccc2F)c2nc(C)c(C(=O)NC3C(N)C3(C)C)n2c1 (racemic) [Example 341, rac-N-(3-amino-2,2-dimethylcyclopropyl)-8-[(2,6-difluorobenzyl)oxy]-2,6-dimethylimidazo[1,2-a]pyridine-3-carboxamide (racemate)]  0.30 µM
